Target: IRAK4 (Homo sapiens (Human), UniProt Q9NWZ3)
Assay: IRAK4 Inhibition Assay
Format: biochemical
Details: ATP 500 μM; IRAK4 0.6 nM; 60 min at room temperature
Protocol: The assays were performed in U-bottom 384-well plates. The final assay volume was 30 μL prepared from 15 μL additions of enzyme and substrates (fluoresceinated peptide and ATP) and test compounds in assay buffer (20 mM HEPES pH 7.2, 10 mM MgCl2, 0.015% Brij 35 and 4 mM DTT). The reaction was initiated by the combination of IRAK4 with substrates and test compounds. The reaction mixture was incubated at room temperature for 60 min. and terminated by adding 45 μL of 35 mM EDTA to each sample. The reaction mixture was analyzed on the Caliper LABCHIP® 3000 (Caliper, Hopkinton, MA) by electrophoretic separation of the fluorescent substrate and phosphorylated product. Inhibition data were calculated by comparison to no enzyme control reactions for 100% inhibition and vehicle-only reactions for 0% inhibition. The final concentrations of reagents in the assays are ATP, 500 μM; FL-IPTSPITTTYFFFKKK peptide 1.5 μM; IRAK4, 0.6 nM; and DMSO, 1.6%.

Chain of IRAK4 (Q9NWZ3 whole entry, species assumed): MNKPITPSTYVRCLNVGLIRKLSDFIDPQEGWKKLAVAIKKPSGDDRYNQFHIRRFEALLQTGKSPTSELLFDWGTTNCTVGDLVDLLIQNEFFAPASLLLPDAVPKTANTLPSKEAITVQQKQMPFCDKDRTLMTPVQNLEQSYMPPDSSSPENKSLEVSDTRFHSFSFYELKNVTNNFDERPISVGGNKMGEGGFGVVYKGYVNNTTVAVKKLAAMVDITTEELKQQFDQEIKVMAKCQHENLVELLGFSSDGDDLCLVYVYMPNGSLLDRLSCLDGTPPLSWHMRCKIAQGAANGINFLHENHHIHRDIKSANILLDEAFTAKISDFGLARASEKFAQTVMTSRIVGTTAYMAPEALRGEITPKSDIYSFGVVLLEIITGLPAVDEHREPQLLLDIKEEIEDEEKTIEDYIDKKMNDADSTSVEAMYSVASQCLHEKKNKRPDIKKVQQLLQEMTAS

IC50 | Compound
53.5 nM | COc1ncc(-c2cc3c(NC(C)C)c(C(=O)NC[C@@H](F)C(C)(C)O)cnc3s2)s1 [Example 58, (R)-N-(2-fluoro-3-hydroxy-3-methylbutyl)-4-(isopropylamino)-2-(2-methoxythiazol-5-yl)thieno[2,3-b]pyridine-5-carboxamide]
39.8 nM | C[C@H](CO)Nc1c(C(=O)NC[C@@H](F)C(C)(C)O)cnc2sc(-c3ccccc3)nc12 [Example 6, N-((R)-2-fluoro-3-hydroxy-3-methylbutyl)-7-(((R)-1-hydroxypropan-2-yl)amino)-2-phenylthiazolo[5,4-b]pyridine-6-carboxamide]
517 nM | O=C(NCCN1CCC(O)CC1)c1cnc2sc(-c3cccnc3)nc2c1NC1CCOCC1 [Example 13, N-(2-(4-hydroxypiperidin-1-yl)ethyl)-2-(pyridin-3-yl)-7-((tetrahydro-2H-pyran-4-yl)amino)thiazolo[5,4-b]pyridine-6-carboxamide]
323 nM | CC(C)Nc1c(C(=O)NCCC(F)(F)F)cnc2sc(-c3cccnc3)nc12 [Example 18, 7-(isopropylamino)-2-(pyridin-3-yl)-N-(3,3,3-trifluoropropyl) thiazolo[5,4-b]pyridine-6-carboxamide]
21.6 nM | CC(C)Nc1c(C(=O)NCc2cocn2)cnc2sc(-c3cncs3)cc12 [Example 41, 4-(isopropylamino)-N-(oxazol-4-ylmethyl)-2-(thiazol-5-yl) thieno[2,3-b]pyridine-5-carboxamide]
8.5 nM | CC(C)Nc1c(C(=O)NC[C@@H](F)C(C)(C)O)cnc2sc(-c3ccc(C#N)nc3)cc12 [Example 64, (R)-2-(6-cyanopyridin-3-yl)-N-(2-fluoro-3-hydroxy-3-methylbutyl)-4-(isopropylamino)thieno[2,3-b]pyridine-5-carboxamide]
3.7 nM | CC(=O)N[C@H]1CC[C@H](NC(=O)c2cnc3sc(-c4cncs4)cc3c2NC(C)C)CC1 [Example 45, N-((1r,4r)-4-acetamidocyclohexyl)-4-(isopropylamino)-2-(thiazol-5-yl)thieno[2,3-b]pyridine-5-carboxamide]
168 nM | CC(C)(O)CCNC(=O)c1cnc2sc(-c3cccnc3)nc2c1NC1CCOCC1 [Example 12, N-(3-hydroxy-3-methylbutyl)-2-(pyridin-3-yl)-7-((tetrahydro-2H-pyran-4-yl)amino) thiazolo[5,4-b]pyridine-6-carboxamide]
59.7 nM | Cc1cc(CNC(=O)c2cnc3sc(-c4cncs4)cc3c2NC(C)C)on1 [Example 35, 4-(isopropylamino)-N-((3-methylisoxazol-5-yl)methyl)-2-(thiazol-5-yl)thieno[2,3-b]pyridine-5-carboxamide]
46.2 nM | CCNc1c(C(=O)NC[C@@H](F)C(C)(C)O)cnc2sc(-c3ccccc3)nc12 [Example 5, (R)-7-(ethylamino)-N-(2-fluoro-3-hydroxy-3-methylbutyl)-2-phenylthiazolo[5,4-b]pyridine-6-carboxamide]
2380 nM | CC(C)Nc1c(C(=O)NC[C@@H](F)C(C)(C)O)cnc2sc(Nc3ccc(-n4cccn4)cc3)nc12 [Example 15, (R)-2-((4-(1H-pyrazol-1-yl)phenyl)amino)-N-(2-fluoro-3-hydroxy-3-methylbutyl)-7-(isopropylamino)thiazolo[5,4-b]pyridine-6-carboxamide]
1230 nM | COCCNC(=O)c1cnc2sc(-c3cncs3)cc2c1Nc1cnn(CC(F)F)c1 [Example 51, 4-((1-(2,2-difluoroethyl)-1H-pyrazol-4-yl)amino)-N-(2-methoxyethyl)-2-(thiazol-5-yl)thieno[2,3-b]pyridine-5-carboxamide]
797 nM | CC(C)Nc1c(C(=O)NC[C@@H](F)C(C)(C)O)cnc2sc(Nc3ccc(S(C)(=O)=O)cc3)nc12 [Example 17, (R)-N-(2-fluoro-3-hydroxy-3-methylbutyl)-7-(isopropylamino)-2-((4-(methylsulfonyl)phenyl)amino)thiazolo[5,4-b]pyridine-6-carboxamide]
193 nM | O=C(N[C@H]1CC[C@H](O)CC1)c1cnc2sc(-c3cncs3)cc2c1NC1COC1 [Example 54, N-((1s,4s)-4-hydroxycyclohexyl)-4-(oxetan-3-ylamino)-2-(thiazol-5-yl)thieno[2,3-b]pyridine-5-carboxamide]
44.1 nM | CC(C)CCc1cn(-c2cnc3sc(-c4ccncc4)cc3c2NC(C)C)nn1 [Example 76, 5-(4-isopentyl-1H-1,2,3-triazol-1-yl)-N-isopropyl-2-(pyridin-4-yl)thieno[2,3-b]pyridin-4-amine]
1880 nM | C[C@H](CCO)NC(=O)c1cnc2sc(-c3cncs3)cc2c1Nc1cnn(CC(F)F)c1 [Example 48, (R)-4-((1-(2,2-difluoroethyl)-1H-pyrazol-4-yl)amino)-N-(4-hydroxybutan-2-yl)-2-(thiazol-5-yl)thieno[2,3-b]pyridine-5-carboxamide]

IC50 | Compound
124 nM | CC(C)Nc1c(C(=O)NC[C@@H](F)C(C)(C)O)cnc2sc(Nc3cccnc3)nc12 [Example 16, (R)-N-(2-fluoro-3-hydroxy-3-methylbutyl)-7-(isopropylamino)-2-(pyridin-3-ylamino)thiazolo[5,4-b]pyridine-6-carboxamide]
18.6 nM | CC(C)Nc1c(C(=O)NC[C@@H](F)C(C)(C)O)cnc2sc(-c3cncc(C#N)c3)cc12 [Example 65, (R)-2-(5-cyanopyridin-3-yl)-N-(2-fluoro-3-hydroxy-3-methylbutyl)-4-(isopropylamino)thieno[2,3-b]pyridine-5-carboxamide]
215 nM | CC(C)Nc1c(C(=O)NCC2(CO)COC2)cnc2sc(-c3cncs3)cc12 [Example 47, N-((3-(hydroxymethyl)oxetan-3-yl)methyl)-4-(isopropylamino)-2-(thiazol-5-yl)thieno[2,3-b]pyridine-5-carboxamide]
30 nM | COCCNC(=O)c1cnc2sc(-c3cncs3)cc2c1NC(C)C [Example 34, 4-(isopropylamino)-N-(2-methoxyethyl)-2-(thiazol-5-yl)thieno[2,3-b]pyridine-5-carboxamide]
29 nM | CC(C)CCNC(=O)c1cnc2sc(-c3ccnnc3)cc2c1NC(C)C [Example 33, N-isopentyl-4-(isopropylamino)-2-(pyridazin-4-yl)thieno[2,3-b]pyridine-5-carboxamide]
39.9 nM | CC(C)(O)[C@H](F)CNC(=O)c1cnc2sc(-c3cccnc3)nc2c1NC1CCOCC1 [Example 14, (R)-N-(2-fluoro-3-hydroxy-3-methylbutyl)-2-(pyridin-3-yl)-7-((tetrahydro-2H-pyran-4-yl)amino)thiazolo[5,4-b]pyridine-6-carboxamide]
12.3 nM | CC(=O)O[C@H]1CC[C@H](NC(=O)c2cnc3sc(-c4cccnc4)nc3c2NC(C)C)CC1 [Example 20, (1r,4r)-4-(7-(isopropylamino)-2-(pyridin-3-yl)thiazolo[5,4-b]pyridine-6-carboxamido)cyclohexyl acetate]
15.5 nM | CC(C)Nc1c(C(=O)NC[C@@H](F)C(C)(C)O)cnc2sc(-c3ccccc3)nc12 [Example 2, (R)-N-(2-fluoro-3-hydroxy-3-methylbutyl)-7-(isopropylamino)-2-phenylthiazolo[5,4-b]pyridine-6-carboxamide]
734 nM | C[C@H](CO)Nc1c(C(=O)NCCS(C)(=O)=O)cnc2sc(-c3ccccc3)nc12 [Example 10, (R)-7-((1-hydroxypropan-2-yl)amino)-N-(2-(methylsulfonyl)ethyl)-2-phenylthiazolo[5,4-b] pyridine-6-carboxamide]
42.8 nM | CC(C)Nc1c(C(=O)NCCCNS(C)(=O)=O)cnc2sc(-c3ccc(=O)[nH]c3)cc12 [Example 67, 4-(isopropylamino)-N-(3-(methylsulfonamido)propyl)-2-(6-oxo-1,6-dihydropyridin-3-yl)thieno[2,3-b]pyridine-5-carboxamide]
554 nM | CC(C)Nc1c(C(=O)NC(CCO)C2CC2)cnc2sc(-c3cncs3)cc12 (centres unmarked) [Example 39, N-(1-cyclopropyl-3-hydroxypropyl)-4-(isopropylamino)-2-(thiazol-5-yl)thieno[2,3-b]pyridine-5-carboxamide]
72.2 nM | CC(C)Nc1c(C(=O)NCC2CCS(=O)(=O)C2)cnc2sc(-c3cncs3)cc12 (centres unmarked) [Example 69, N-((1,1-dioxidotetrahydrothiophen-3-yl)methyl)-4-(isopropylamino)-2-(thiazol-5-yl)thieno[2,3-b]pyridine-5-carboxamide]
126 nM | CC(C)Nc1c(C(=O)N[C@H](C)CCO)cnc2sc(-c3cncs3)cc12 [Example 40, (R)-N-(4-hydroxybutan-2-yl)-4-(isopropylamino)-2-(thiazol-5-yl)thieno[2,3-b]pyridine-5-carboxamide]
12 nM | CC(C)Nc1c(C(=O)NC[C@@H](F)C(C)(C)O)cnc2sc(-c3cccnc3)nc12 [Example 11, (R)-N-(2-fluoro-3-hydroxy-3-methylbutyl)-7-(isopropylamino)-2-(pyridin-3-yl)thiazolo[5,4-b]pyridine-6-carboxamide]
20.6 nM | CC(C)Nc1c(C(=O)N[C@H]2CC[C@H](O)CC2)cnc2sc(-c3cncs3)cc12 [Example 36, N-((1r,4r)-4-hydroxycyclohexyl)-4-(isopropylamino)-2-(thiazol-5-yl)thieno[2,3-b]pyridine-5-carboxamide]
35.1 nM | CC(C)Nc1c(C(=O)NC[C@@H](F)C(C)(C)O)cnc2sc(-c3cscn3)cc12 [Example 62, (R)-N-(2-fluoro-3-hydroxy-3-methylbutyl)-4-(isopropylamino)-2-(thiazol-4-yl)thieno[2,3-b]pyridine-5-carboxamide]

Source: US12304916B2, “Thienopyridinyl and thiazolopyridinyl compounds useful as IRAK4 inhibitors” (BRISTOL-MYERS SQUIBB COMPANY, priority 2019, dated 2025)
